Measured values from patent US20240043427A1 (Gilead Sciences, Inc., priority 2020, published 2024).

What was measured:
CD73 [1] = molecular target: T1, CD73 (Homo sapiens (Human), UniProt P21589); assay: MDA-MB-231 Cell Based CD73 Activity Assay (DMEM); settings: MDA-MB-231-GFP cells, DMEM medium with 10% human plasma, 200 uM AMP
CD73 [2] = molecular target: T1, CD73; type: biochemical; settings: 1 mM NaH2PO4 in enzyme buffer, CD73 0.3 nM, AMP 15 uM

T1 sequence (P21589 27-574): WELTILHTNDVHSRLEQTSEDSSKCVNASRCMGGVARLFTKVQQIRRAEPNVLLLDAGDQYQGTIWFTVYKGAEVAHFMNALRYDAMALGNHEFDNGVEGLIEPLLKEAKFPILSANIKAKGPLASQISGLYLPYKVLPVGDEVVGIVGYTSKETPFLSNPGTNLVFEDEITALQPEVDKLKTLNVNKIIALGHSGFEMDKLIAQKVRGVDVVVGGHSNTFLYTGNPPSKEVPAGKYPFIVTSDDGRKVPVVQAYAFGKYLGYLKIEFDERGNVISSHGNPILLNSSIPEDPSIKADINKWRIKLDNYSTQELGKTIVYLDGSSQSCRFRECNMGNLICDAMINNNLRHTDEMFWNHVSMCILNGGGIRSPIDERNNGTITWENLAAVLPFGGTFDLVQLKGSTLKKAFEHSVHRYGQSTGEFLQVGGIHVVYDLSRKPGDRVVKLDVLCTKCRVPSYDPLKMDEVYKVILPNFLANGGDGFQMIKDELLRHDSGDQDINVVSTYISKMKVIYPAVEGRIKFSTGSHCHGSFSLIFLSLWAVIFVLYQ

## O=c1[nH]cc(-c2cc(N3C[C@@H](Oc4ncc(C(F)(F)F)cn4)C(F)(F)C3)c3nccn3n2)c(=O)[nH]1 [Example 532, (R)-5-(8-(3,3-difluoro-4-((5-(trifluoromethyl)pyrimidin-2-yl)oxy)pyrrolidin-1-yl)imidazo[1,2-b]pyridazin-6-yl)pyrimidine-2,4(1H,3H)-dione]
CD73 [1]
  EC50: 21.5 nM
CD73 [2]
  IC50: 4.42 nM

## O=c1[nH]cc(-c2cc(N3CC[C@@H](C(F)(F)F)C3)c3nccn3n2)c(=O)[nH]1 [Example 175, (R)-5-(8-(3-(trifluoromethyl)pyrrolidin-1-yl)imidazo[1,2-b]pyridazin-6-yl)pyrimidine-2,4(1H,3H)-dione]
CD73 [1]
  EC50: 23.1 nM
CD73 [2]
  IC50: 3.6 nM

## C#CC1(C)CCN(c2cc(-c3c[nH]c(=O)[nH]c3=O)nn3ccnc23)C1 (stereo not shown) [Example 683, 5-(8-(3-ethynyl-3-methylpyrrolidin-1-yl)imidazo[1,2-b]pyridazin-6-yl)pyrimidine-2,4(1H,3H)-dione]
CD73 [1]
  EC50: 10.9 nM
CD73 [2]
  IC50: 1.31 nM

## O=C(NC1CN(c2cc(-c3c[nH]c(=O)[nH]c3=O)nn3ccnc23)CC1(F)F)OCC(F)F (stereo not shown) [Example 208, 2,2-difluoroethyl N-[1-[6-(2,4-dioxo-1H-pyrimidin-5-yl)imidazo[1,2-b]pyridazin-8-yl]-4,4-difluoro-pyrrolidin-3-yl]carbamate]
CD73 [1]
  EC50: 25.4 nM
CD73 [2]
  IC50: 5.88 nM

## O=c1[nH]cc(-c2cc(N3CC4CCC4(F)C3)c3nccn3n2)c(=O)[nH]1 (stereo not shown) [Example 478, 5-(8-(1-fluoro-3-azabicyclo[3.2.0]heptan-3-yl)imidazo[1,2-b]pyridazin-6-yl)pyrimidine-2,4(1H,3H)-dione]
CD73 [1]
  EC50: 53.7 nM
CD73 [2]
  IC50: 32.1 nM

## N#Cc1ccc([C@H]2C[C@@H]2c2cc(-c3c[nH]c(=O)[nH]c3=O)nn3ccnc23)c(F)c1 [Example 279, 4-((1S,2S)-2-(6-(2,4-dioxo-1,2,3,4-tetrahydropyrimidin-5-yl)imidazo[1,2-b]pyridazin-8-yl)cyclopropyl)-3-fluorobenzonitrile]
CD73 [1]
  EC50: 6.64 nM
CD73 [2]
  IC50: 1.07 nM

## CC1(C)C(=O)N(CC(F)(F)F)c2cc([C@H]3C[C@@H]3c3cc(-c4c[nH]c(=O)[nH]c4=O)nn4c(F)cnc34)ccc21 [Example 702, 5-(8-((1S,2S)-2-(3,3-dimethyl-2-oxo-1-(2,2,2-trifluoroethyl)indolin-6-yl)cyclopropyl)-3-fluoroimidazo[1,2-b]pyridazin-6-yl)pyrimidine-2,4(1H,3H)-dione]
CD73 [1]
  EC50: 0.26 nM
CD73 [2]
  IC50: 1.7 nM

## CC(NC(=O)O[C@H]1CN(c2cc(-c3c[nH]c(=O)[nH]c3=O)nn3ccnc23)CC1(F)F)C(F)F (stereo partly drawn) [Example 550, (S)-1-(6-(2,4-dioxo-1,2,3,4-tetrahydropyrimidin-5-yl)imidazo[1,2-b]pyridazin-8-yl)-4,4-difluoropyrrolidin-3-yl (1,1-difluoropropan-2-yl)carbamate]
CD73 [1]
  EC50: 0.83 nM
CD73 [2]
  IC50: 1.67 nM

## CC(COc1cc(-c2c[nH]c(=O)[nH]c2=O)nn2ccnc12)c1ccccc1 (stereo not shown) [Example 674, 5-(8-(2-phenylpropoxy)imidazo[1,2-b]pyridazin-6-yl)pyrimidine-2,4(1H,3H)-dione]
CD73 [1]
  EC50: 48.1 nM
CD73 [2]
  IC50: 16.3 nM

## O=c1[nH]cc(-c2cc([C@H]3C[C@@H]3c3ccc4c(cnn4CC(F)(F)F)c3)c3nccn3n2)c(=O)[nH]1 [Example 316, 5-(8-((1S,2S)-2-(1-(2,2,2-trifluoroethyl)-1H-indazol-5-yl)cyclopropyl)imidazo[1,2-b]pyridazin-6-yl)pyrimidine-2,4(1H,3H)-dione]
CD73 [1]
  EC50: 1.21 nM
CD73 [2]
  IC50: 0.65 nM

## O=c1[nH]cc(-c2cc([C@H]3C[C@@H]3c3ccc(C(F)(F)F)cn3)c3nccn3n2)c(=O)[nH]1 (racemic) [Example 149, 5-(8-((1S,2S)-2-(5-(trifluoromethyl)pyridin-2-yl)cyclopropyl)imidazo[1,2-b]pyridazin-6-yl)pyrimidine-2,4(1H,3H)-dione and 5-(8-((1R,2R)-2-(5-(trifluoromethyl)pyridin-2-yl)cyclopropyl)imidazo[1,2-b]pyridazin-6-yl)pyrimidine-2,4(1H,3H)-dione]
CD73 [1]
  EC50: 7.61 nM
CD73 [2]
  IC50: 3.34 nM
